In US20240246908A1 (ORION CORPORATION, priority 2021, published 2024):

Test system: YAP-TEAD
Assay: TEAD inhibition, Hippo Pathway TEAD Reporter MCF-7 luciferase assay
Type: cell-based
Conditions: Homo sapiens, MCF7, 24 h, Hippo Pathway TEAD Reporter MCF-7 cells, luciferase activity after 24 h; read-out: IC50 of the test compounds on YAP-TEAD inhibition (Group)
Outline: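 IC50 derived from ONE-Glo luciferase luminescence after 24 h compound exposure (11 concentrations in quadruplicate, 0.1% DMSO control). Reporter: MCF-7 line expressing firefly luciferase under TEAD elements, constitutively activated by nuclear YAP1.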

SMILES | IC50
O=C1CCC(C(=O)Nc2cc(Oc3ccc(C(F)(F)F)cn3)cc3c2OCC3)CN1 (stereo not drawn) [Compound 161, 6-Oxo-N-(5-((5-(trifluoromethyl)pyridin-2-yl)oxy)-2,3-dihydrobenzofuran-7-yl)piperidine-3-carboxamide] | 0.05 to 0.3 µM
CN1C(=O)CC[C@@H]1C(=O)Nc1cc(Oc2ccc(C(F)(F)F)cn2)cc2c1OCC2 [Compound 162, (R)-1-Methyl-5-oxo-N-(5-((5-(trifluoromethyl)pyridin-2-yl)oxy)-2,3-dihydro-benzofuran-7-yl)pyrrolidine-2-carboxamide] | < 0.05 µM
CN1C(=O)CC[C@H]1C(=O)Nc1cc(Oc2ccc(C(F)(F)F)cn2)cc2c1OCC2 [Compound 163, (S)-1-Methyl-5-oxo-N-(5-((5-(trifluoromethyl)pyridin-2-yl)oxy)-2,3-dihydro-benzofuran-7-yl)pyrrolidine-2-carboxamide] | < 0.05 µM
O=C(Nc1cc(Oc2ccc(C(F)(F)F)cn2)cc2c1OCC2)C1CNC(=O)N1C1CC1 (stereo not drawn) [Compound 164, 3-Cyclopropyl-2-oxo-N-(5-((5-(trifluoromethyl)pyridin-2-yl)oxy)-2,3-dihydro-benzofuran-7-yl)imidazolidine-4-carboxamide] | < 0.05 µM
O=C(Nc1cc(Oc2ccc(C(F)(F)F)cn2)cc2c1OCC2)[C@@H]1CCC(=O)N1C1CC1 [Compound 165, (S)-1-Cyclopropyl-5-oxo-N-(5-((5-(trifluoromethyl)pyridin-2-yl)oxy)-2,3-dihydrobenzofuran-7-yl)pyrrolidine-2-carboxamide] | < 0.05 µM
O=C(Nc1cc(Oc2ccc(C(F)(F)F)cn2)cc2c1OCC2)[C@H]1CCC(=O)N1C1CC1 [Compound 166, (R)-1-Cyclopropyl-5-oxo-N-(5-((5-(trifluoromethyl)pyridin-2-yl)oxy)-2,3-dihydrobenzofuran-7-yl)pyrrolidine-2-carboxamide] | < 0.05 µM
CCN1C(=O)NCC1C(=O)Nc1cc(Oc2ccc(C(F)(F)F)cn2)cc2c1OCC2 (stereo not drawn) [Compound 167, 3-Ethyl-2-oxo-N-(5-((5-(trifluoromethyl)pyridin-2-yl)oxy)-2,3-dihydrobenzo-furan-7-yl)imidazolidine-4-carboxamide] | < 0.05 µM
CN1C(=O)NC[C@H]1C(=O)Nc1cc(Oc2ccc(C(F)(F)F)cn2)cc2c1OCC2 [Compound 168, (S)-3-Methyl-2-oxo-N-(5-((5-(trifluoromethyl)pyridin-2-yl)oxy)-2,3-dihydro-benzofuran-7-yl)imidazolidine-4-carboxamide] | < 0.05 µM
CN1C(=O)NC[C@@H]1C(=O)Nc1cc(Oc2ccc(C(F)(F)F)cn2)cc2c1OCC2 [Compound 169, (R)-3-Methyl-2-oxo-N-(5-((5-(trifluoromethyl)pyridin-2-yl)oxy)-2,3-dihydro-benzofuran-7-yl)imidazolidine-4-carboxamide] | 0.05 to 0.3 µM
CCN1C(=O)CC[C@@H]1C(=O)Nc1cc(Oc2ccc(C(F)(F)F)cn2)cc2c1OCC2 [Compound 170, (R)-1-Ethyl-5-oxo-N-(5-((5-(trifluoromethyl)pyridin-2-yl)oxy)-2,3-dihydro-benzofuran-7-yl)pyrrolidine-2-carboxamide] | < 0.05 µM
CCN1C(=O)CC[C@H]1C(=O)Nc1cc(Oc2ccc(C(F)(F)F)cn2)cc2c1OCC2 [Compound 171, (S)-1-Ethyl-5-oxo-N-(5-((5-(trifluoromethyl)pyridin-2-yl)oxy)-2,3-dihydro-benzofuran-7-yl)pyrrolidine-2-carboxamide] | < 0.05 µM
C[C@H]1Cc2cc(Oc3ccc(C(F)(F)F)cn3)cc(NC(=O)[C@H]3CCC(=O)N3C)c2O1 [Compound 172, (2R)-1-Methyl-N-(2-methyl-5-((5-(trifluoromethyl)pyridin-2-yl)oxy)-2,3-di-hydrobenzofuran-7-yl)-5-oxopyrrolidine-2-carboxamide] | 0.05 to 0.3 µM
C[C@@H]1Cc2cc(Oc3ccc(C(F)(F)F)cn3)cc(NC(=O)[C@H]3CCC(=O)N3C)c2O1 [Compound 173, (2R)-1-Methyl-N-(2-methyl-5-((5-(trifluoromethyl)pyridin-2-yl)oxy)-2,3-di-hydrobenzofuran-7-yl)-5-oxopyrrolidine-2-carboxamide] | 0.05 to 0.3 µM
CN1C(=O)CC[C@H]1C(=O)Nc1cc(Oc2ccc(C(F)(F)F)cn2)cc2c1OCCC2 [Compound 174, (S)-1-Methyl-5-oxo-N-(6-((5-(trifluoromethyl)pyridin-2-yl)oxy)chroman-8-yl)pyrrolidine-2-carboxamide] | 0.05 to 0.3 µM
CN1C(=O)CC[C@@H]1C(=O)Nc1cc(Oc2ccc(C(F)(F)F)cn2)cc2c1OCCC2 [Compound 175, (R)-1-Methyl-5-oxo-N-(6-((5-(trifluoromethyl)pyridin-2-yl)oxy)chroman-8-yl)pyrrolidine-2-carboxamide] | < 0.05 µM
CN1C(=O)NCC1C(=O)Nc1cc(Oc2ccc(C(F)(F)F)cn2)cc2c1OCCC2 (stereo not drawn) [Compound 176, 3-Methyl-2-oxo-N-(6-((5-(trifluoromethyl)pyridin-2-yl)oxy)chroman-8-yl)-imidazolidine-4-carboxamide] | < 0.05 µM
CN1C(=O)CCC1C(=O)Nc1cc(Oc2ccc(C(F)(F)F)cn2)cc2c1OCCC2 (stereo not drawn) [Compound 177, 1-Methyl-5-oxo-N-(6-((5-(trifluoromethyl)pyridin-2-yl)oxy)chroman-8-yl)-pyrrolidine-2-carboxamide] | < 0.05 µM

SMILES | IC50
CN1C(=O)NCC1C(=O)Nc1cc(Oc2ccc(C(F)(F)F)cn2)cc2c1OCO2 (stereo not drawn) [Compound 178, 3-Methyl-2-oxo-N-(6-((5-(trifluoromethyl)pyridin-2-yl)oxy)benzo[d]-[1,3]dioxol-4-yl)imidazolidine-4-carboxamide] | < 0.05 µM
O=C(Nc1cc(Oc2ccc(C(F)(F)F)cn2)cc2c1OCO2)C1CCC(=O)N1C1CC1 (stereo not drawn) [Compound 179, 1-Cyclopropyl-5-oxo-N-(6-((5-(trifluoromethyl)pyridin-2-yl)oxy)benzo[d]-[1,3]dioxol-4-yl)pyrrolidine-2-carboxamide] | < 0.05 µM
CN1C(=O)NC[C@H]1C(=O)Nc1cc(Oc2ccc(C(F)(F)F)cn2)cc2c1OCO2 [Compound 180, (S)-3-Methyl-2-oxo-N-(6-((5-(trifluoromethyl)pyridin-2-yl)oxy)benzo-[d][1,3]dioxol-4-yl)imidazolidine-4-carboxamide] | < 0.05 µM
CN1C(=O)NC[C@@H]1C(=O)Nc1cc(Oc2ccc(C(F)(F)F)cn2)cc2c1OCO2 [Compound 181, (R)-3-Methyl-2-oxo-N-(6-((5-(trifluoromethyl)pyridin-2-yl)oxy)benzo-[d][1,3]dioxol-4-yl)imidazolidine-4-carboxamide] | 0.301 to 2 µM
CN1C(=O)CCC1C(=O)Nc1cc(Oc2ccc(C(F)(F)F)cc2)cc2ccoc12 (stereo not drawn) [Compound 185, 1-Methyl-5-oxo-N-(5-(4-(trifluoromethyl)phenoxy)benzofuran-7-yl)pyrrolidine-2-carboxamide] | < 0.05 µM
CN1C(=O)NCC1C(=O)Nc1cc(Oc2ccc(C(F)(F)F)cc2)cc2c1OCO2 (stereo not drawn) [Compound 186, 3-Methyl-2-oxo-N-(6-(4-(trifluoromethyl)phenoxy)benzo[d][1,3]dioxol-4-yl)-imidazolidine-4-carboxamide] | < 0.05 µM
O=C1CC(C(=O)Nc2cc(Oc3ccc(C(F)(F)F)cc3)cc3c2OCC3)CCN1 (stereo not drawn) [Compound 187, 2-Oxo-N-(5-(4-(trifluoromethyl)phenoxy)-2,3-dihydrobenzofuran-7-yl)-piperidine-4-carboxamide] | < 0.05 µM
CNC(=O)CN1C(=O)CCC1C(=O)Nc1cc(Oc2ccc(C(F)(F)F)cc2)cc2c1OCC2 (stereo not drawn) [Compound 188, 1-(2-(Methylamino)-2-oxoethyl)-5-oxo-N-(5-(4-(trifluoromethyl)phenoxy)-2,3-dihydrobenzofuran-7-yl)pyrrolidine-2-carboxamide] | 0.301 to 2 µM
NC(=O)CN1C(=O)CCC1C(=O)Nc1cc(Oc2ccc(C(F)(F)F)cc2)cc2c1OCC2 (stereo not drawn) [Compound 189, 1-(2-Amino-2-oxoethyl)-5-oxo-N-(5-(4-(trifluoromethyl)phenoxy)-2,3-dihydro-benzofuran-7-yl)pyrrolidine-2-carboxamide] | < 0.05 µM
O=C1CCC(C(=O)Nc2cc(OC3CCC(F)(F)CC3)cc3c2OCC3)CN1 (stereo not drawn) [Compound 190, N-(5-((4,4-Difluorocyclohexyl)oxy)-2,3-dihydrobenzofuran-7-yl)-6-oxo-piperidine-3-carboxamide] | 0.301 to 2 µM
O=C1CCC(C(=O)Nc2cc(OC3CCC(F)(F)CC3)cc3c2OCCO3)CN1 (stereo not drawn) [Compound 191, N-(7-((4,4-Difluorocyclohexyl)oxy)-2,3-dihydrobenzo[b][1,4]dioxin-5-yl)-6-oxopiperidine-3-carboxamide] | 0.301 to 2 µM
CN1C(=O)NCC1C(=O)Nc1cc(Oc2ccc(C(F)(F)F)cc2)cc2c1OCCO2 (stereo not drawn) [Compound 192, 3-Methyl-2-oxo-N-(7-(4-(trifluoromethyl)phenoxy)-2,3-dihydrobenzo[b][1,4]-dioxin-5-yl)imidazolidine-4-carboxamide] | < 0.05 µM
CN1C(=O)NCC1C(=O)Nc1cc(Oc2ccc(C(F)(F)F)cn2)cc2cn[nH]c12 (stereo not drawn) [Compound 193, 3-Methyl-2-oxo-N-(5-((5-(trifluoromethyl)pyridin-2-yl)oxy)-1H-indazol-7-yl)-imidazolidine-4-carboxamide] | 0.301 to 2 µM
CN1C(=O)NC[C@@H]1C(=O)Nc1cc(Oc2ccc(C(F)(F)F)cn2)ccc1F [Compound 196, (R)—N-(2-Fluoro-5-((5-(trifluoromethyl)pyridin-2-yl)oxy)phenyl)-3-methyl-2-oxoimidazolidine-4-carboxamide] | < 0.05 µM
CN1C(=O)OCC1C(=O)Nc1cc(Oc2ccc(C(F)(F)F)cn2)ccc1F (stereo not drawn) [Compound 197, N-(2-Fluoro-5-((5-(trifluoromethyl)pyridin-2-yl)oxy)phenyl)-3-methyl-2-oxooxazolidine-4-carboxamide] | 0.05 to 0.3 µM
CN1C(=O)OC[C@@H]1C(=O)Nc1cc(Oc2ccc(C(F)(F)F)cn2)ccc1F [Compound 198, (R)—N-(2-Fluoro-5-((5-(trifluoromethyl)pyridin-2-yl)oxy)phenyl)-3-methyl-2-oxooxazolidine-4-carboxamide] | 0.05 to 0.3 µM
